Active and inactive are the calls of the source. The calls are words filed in the database; no cut-off is given here.
How the values were obtained:
Bel-7402 [1] = experiment: Induction of apoptosis in human Bel7402 cells assessed as early apoptotic cells at 2.5 uM after 48 hrs by annexin V-FITC/propidium iodide staining based flow cytometry (reference value: 6.9 %); type: functional
NCI-H157 = experiment: Cytotoxicity against human NCI-H157 cells after 72 hrs by MTT assay; type: functional, cell-based; details: NCI-H157, 72 h
[2] = Cytotoxicity against human HL-7702 cells measured for 72 hrs by MTT assay; type: cell-based; details: l02, 72 h
SGC-7901 = experiment: Cytotoxicity against human SGC7901 cells after 72 hrs by MTT assay; type: functional, cell-based; details: SGC-7901, 72 h
Bel-7402 [3] = experiment: Cytotoxicity against human Bel7402 cells after 72 hrs by MTT assay; type: functional, cell-based; details: Bel-7402, 72 h
MKN-45 = experiment: Cytotoxicity against human MKN45 cells after 72 hrs by MTT assay; type: functional, cell-based; details: MKN-45, 72 h
[4] = Cell cycle arrest in human HL-7702 cells assessed as accumulation at G2/M phase by FACS flow cytometry; type: cell-based; details: l02
[5] = […] of Cdc25A expression in human HL-7702 cells assessed as reduction in mRNA level at 2.5 uM after 12 to 48 hrs by RT-PCR analysis; type: ADME, cell-based; details: l02, 2.5 µM
[6] = Cytotoxicity against human LTEP-A2 cells after 72 hrs by MTT assay; type: functional, cell-based; details: LTEP-A2, 72 h
Bcap37 = experiment: Cytotoxicity against human Bcap37 cells after 72 hrs by MTT assay; type: functional, cell-based; details: Bcap37, 72 h
Bel-7402 [7] = experiment: Cytotoxicity against human Bel7402 cells measured for 72 hrs by MTT assay; type: functional, cell-based
[8] = Cell cycle arrest in human HL-7702 cells assessed as accumulation at G1 phase by FACS flow cytometry; type: cell-based; details: l02
[9] = Induction of apoptosis in human HL-7702 cells assessed as late apoptotic cells at 2.5 uM after 48 hrs by annexin V-FITC/propidium iodide staining based flow cytometry (Rvb =8.6 %); type: cell-based; details: l02, 48 h
Bel-7402 [10] = experiment: Induction of apoptosis in human Bel7402 cells assessed as increase in caspase 8 levels; type: functional, cell-based
Bel-7402 [11] = experiment: Induction of apoptosis in human Bel7402 cells assessed as early apoptotic cells at 2.5 uM after 24 hrs by annexin V-FITC/propidium iodide staining based flow cytometry (reference value: 3.8 %); type: functional
[12] = Cell cycle arrest in human HL-7702 cells assessed as accumulation at sub-G1 phase by FACS flow cytometry; type: cell-based; details: l02
Bel-7402 [13] = experiment: Cell cycle arrest in human Bel7402 cells assessed as accumulation at sub-G1 phase by FACS flow cytometry; type: functional
NCI-H446 = experiment: Cytotoxicity against human NCI-H446 cells after 72 hrs by MTT assay; type: functional, cell-based; details: NCI-H446, 72 h
DU-145 = experiment: Cytotoxicity against human DU145 cells after 72 hrs by MTT assay; type: functional, cell-based; details: DU-145, 72 h
[14] = Induction of apoptosis in human HL-7702 cells assessed as early apoptotic cells at 2.5 uM after 48 hrs by annexin V-FITC/propidium iodide staining based flow cytometry (Rvb =6.7 %); type: cell-based; details: l02, 48 h
OVCAR-3 = experiment: Cytotoxicity against human OVCAR3 cells after 72 hrs by MTT assay; type: functional, cell-based; details: OVCAR-3, 72 h
HCT-116 = experiment: Cytotoxicity against human HCT116 cells after 72 hrs by MTT assay; type: functional, cell-based; details: HCT-116, 72 h
Bel-7402 [15] = experiment: Induction of apoptosis in human Bel7402 cells assessed as early apoptotic cells at 2.5 uM after 12 hrs by annexin V-FITC/propidium iodide staining based flow cytometry (reference value: 3.2 %); type: functional
MCF7 = experiment: Cytotoxicity against human MCF7 cells after 72 hrs by MTT assay; type: functional, cell-based; details: MCF7, 72 h
A549 = experiment: Cytotoxicity against human A549 cells after 72 hrs by MTT assay; type: functional, cell-based; details: A549, 72 h
Bel-7402 [16] = experiment: Induction of apoptosis in human Bel7402 cells assessed as late apoptotic cells at 2.5 uM after 48 hrs by annexin V-FITC/propidium iodide staining based flow cytometry (reference value: 3.7 %); type: functional
Bel-7402 [17] = experiment: Induction of apoptosis in human Bel7402 cells assessed as late apoptotic cells at 2.5 uM after 24 hrs by annexin V-FITC/propidium iodide staining based flow cytometry (reference value: 7.5 %); type: functional
HepG2 = experiment: Cytotoxicity against human HepG2 cells after 72 hrs by MTT assay; type: functional, cell-based; details: HepG2, 72 h
[18] = Cytotoxicity against human HL-7702 cells at 2.5 uM by MTT assay; type: cell-based; details: l02, 2.5 µM, TDE = time-dependent effect
Caco-2 = experiment: Cytotoxicity against human Caco2 cells after 72 hrs by MTT assay; type: functional, cell-based; details: Caco-2, 72 h
[19] = Cell cycle arrest in human HL-7702 cells assessed as accumulation at S phase by FACS flow cytometry; type: ADME, cell-based; details: l02
Bel-7402 [20] = experiment: Cytotoxicity against human Bel7402 cells at 2.5 uM by MTT assay; type: functional, cell-based; details: TDE = time-dependent effect
Bel-7402 [21] = experiment: Induction of apoptosis in human Bel7402 cells assessed as late apoptotic cells at 2.5 uM after 12 hrs by annexin V-FITC/propidium iodide staining based flow cytometry (reference value: 5.5 %); type: functional
[22] = Cytotoxicity against human HL-7702 cells after 72 hrs by MTT assay; type: cell-based; details: L02, 72 h
Bel-7402 [23] = experiment: Cell cycle arrest in human Bel7402 cells assessed as accumulation at G1 phase by FACS flow cytometry; type: functional
Bel-7402 [24] = experiment: Cell cycle arrest in human Bel7402 cells assessed as accumulation at G2/M phase by FACS flow cytometry; type: functional
NCI-H460 = experiment: Cytotoxicity against human H460 cells after 72 hrs by MTT assay; type: functional, cell-based; details: NCI-H460, 72 h
[25] = Down regulation of Cyclin A expression in human HL-7702 cells assessed as reduction in mRNA level at 2.5 uM after 48 hrs by RT-PCR analysis; type: ADME, cell-based; parameters: scale not given: the % may be the effect or the level left; details: l02, 48 h
Bel-7402 [26] = experiment: Down regulation of Cyclin A expression in human Bel7402 cells at 2.5 uM after 48 hrs by Western blotting analysis; type: functional, cell-based
Bel-7402 [27] = experiment: Down regulation of Cdc25A expression in human Bel7402 cells at 2.5 uM after 48 hrs by Western blotting analysis; type: functional, cell-based
Bel-7402 [28] = experiment: Induction of apoptosis in human Bel7402 cells assessed as caspase 8 activation; type: functional, cell-based
Bel-7402 [29] = experiment: Down regulation of CDK4 expression in human Bel7402 cells at 2.5 uM after 48 hrs by Western blotting analysis; type: functional, cell-based
Bel-7402 [30] = experiment: Down regulation of CDK1 expression in human Bel7402 cells at 2.5 uM after 48 hrs by Western blotting analysis; type: functional, cell-based
Bel-7402 [31] = experiment: Down regulation of Cdc25A expression in human Bel7402 cells at 2.5 uM after 12 hrs by Western blotting analysis; type: functional, cell-based
Bel-7402 [32] = experiment: Down regulation of Cyclin B expression in human Bel7402 cells at 2.5 uM after 48 hrs by Western blotting analysis; type: functional, cell-based
Bel-7402 [33] = experiment: Down regulation of CDK2 expression in human Bel7402 cells at 2.5 uM after 48 hrs by Western blotting analysis; type: functional, cell-based

C[C@@H]1O[C@@H](O[C@H]2[C@H](O[C@H]3CO[C@@H](O[C@H]4CC[C@]5(C)[C@H]6CC[C@]78OC[C@@]9(CCC(C)(C)C[C@H]97)[C@H](O)C[C@@]8(C)[C@]6(C)CC[C@H]5C4(C)C)[C@H](O[C@@H]4O[C@H](CO)[C@@H](O)[C@H](O)[C@H]4O)[C@H]3O)O[C@H](CO)[C@@H](O)[C@@H]2O)[C@H](O)[C@H](O)[C@H]1O
Activity (Bel-7402 [1]): 16.1%
IC50 (NCI-H157): 5.21 µM
Activity [2]: Dose-dependent effect
IC50 (SGC-7901): 5.88 µM
IC50 (Bel-7402 [3]): 1.18 µM
IC50 (MKN-45): 6.23 µM
Activity [4]: 12.3%
Activity [5]: Toxic
IC50 [6]: 7.92 µM
IC50 (Bcap37): > 10 µM
Activity (Bel-7402 [7]): Dose-dependent effect
Activity [8]: 67.3%
Activity [9]: 8.9%
Activity (Bel-7402 [10]): Active
Activity (Bel-7402 [11]): 42.3%
Activity [12]: < 1%
Activity (Bel-7402 [13]): 48.4%
IC50 (NCI-H446): 7.74 µM
IC50 (DU-145): 5.47 µM
Activity [14]: 7.2%
IC50 (OVCAR-3): 8.22 µM
IC50 (HCT-116): > 10 µM
Activity (Bel-7402 [15]): 36.5%
IC50 (MCF7): > 10 µM
IC50 (A549): 4.41 µM
Activity (Bel-7402 [16]): 36.7%
Activity (Bel-7402 [17]): 3.4%
IC50 (HepG2): 3.17 µM
Activity [18]: tde
IC50 (Caco-2): 7.66 µM
Activity [19]: 19.7%
Activity (Bel-7402 [20]): tde
Activity (Bel-7402 [21]): 5.3%
IC50 [22]: > 100 µM
Activity (Bel-7402 [23]): 76.6%
Activity (Bel-7402 [24]): 23.4%
IC50 (NCI-H460): > 10 µM

CC1(C)CC[C@]23CO[C@@]4(CC[C@@H]5[C@@]6(C)CC[C@H](O[C@@H]7OC[C@H](O[C@@H]8O[C@H](CO)[C@@H](O)[C@H](O[C@@H]9O[C@H](CO)[C@@H](O)[C@H](O[C@@H]%10O[C@H](CO)[C@@H](O)[C@H](O)[C@H]%10O)[C@H]9O)[C@H]8O[C@@H]8OC[C@@H](O)[C@H](O)[C@H]8O)[C@H](O)[C@H]7O[C@@H]7O[C@H](CO)[C@@H](O)[C@H](O)[C@H]7O)C(C)(C)[C@@H]6CC[C@@]5(C)[C@]4(C)C[C@H]2O)[C@@H]3C1 [ARDISIANOSIDE B]
Activity (Bel-7402 [1]): 17.6%
IC50 (NCI-H157): 5.09 µM
Activity [2]: Dose-dependent effect
IC50 (SGC-7901): 5.37 µM
Activity [25]: 10%
Activity (Bel-7402 [26]): Active
IC50 (Bel-7402 [3]): 0.92 µM
Activity (Bel-7402 [27]): Active
IC50 (MKN-45): 8.39 µM
Activity (Bel-7402 [28]): Active
Activity [4]: 12.5%
Activity [5]: Toxic
IC50 [6]: > 10 µM
IC50 (Bcap37): > 10 µM
Activity (Bel-7402 [7]): Dose-dependent effect
Activity (Bel-7402 [29]): Active
Activity [8]: 68.4%
Activity [9]: 9.2%
Activity (Bel-7402 [30]): Active
Activity (Bel-7402 [10]): Active
Activity (Bel-7402 [31]): Active
Activity (Bel-7402 [11]): 46.4%
Activity [12]: < 1%
Activity (Bel-7402 [13]): 57.8%
IC50 (NCI-H446): 6.63 µM
IC50 (DU-145): 6.17 µM
Activity [14]: 8.3%
IC50 (OVCAR-3): > 10 µM
IC50 (HCT-116): > 10 µM
Activity (Bel-7402 [15]): 39.4%
IC50 (MCF7): > 10 µM
IC50 (A549): 4.47 µM
Activity (Bel-7402 [32]): Active
Activity (Bel-7402 [16]): 41.5%
Activity (Bel-7402 [17]): 3.2%
IC50 (HepG2): 2.98 µM
Activity [18]: tde
IC50 (Caco-2): 7.19 µM
Activity [19]: 19.1%
Activity (Bel-7402 [20]): tde
Activity (Bel-7402 [21]): 3.9%
IC50 [22]: > 100 µM
Activity (Bel-7402 [33]): Active
Activity (Bel-7402 [23]): 74.5%
Activity (Bel-7402 [24]): 25.5%
IC50 (NCI-H460): > 10 µM

COc1cccc2c1C(=O)c1c(O)c3c(c(O)c1C2=O)C[C@@](O)(C(=O)CO)C[C@@H]3O[C@H]1C[C@H](N)[C@@H](O)[C@H](C)O1 [EPIRUBICIN]
IC50 (NCI-H157): 1.72 µM
IC50 (SGC-7901): 0.51 µM
IC50 (Bel-7402 [3]): 1.23 µM
IC50 (MKN-45): 0.66 µM
IC50 [6]: 3.41 µM
IC50 (Bcap37): 0.89 µM
IC50 (NCI-H446): 2.35 µM
IC50 (DU-145): 4.01 µM
IC50 (OVCAR-3): 0.75 µM
IC50 (HCT-116): 0.57 µM
IC50 (MCF7): 1.25 µM
IC50 (A549): 0.88 µM
IC50 (HepG2): 2.23 µM
IC50 (Caco-2): 0.41 µM
IC50 [22]: 1.74 µM
IC50 (NCI-H460): 6.74 µM

From ChEMBL document CHEMBL2086259, “13,28-Epoxy triterpenoid saponins from Ardisia japonica selectively inhibit proliferation of liver cancer cells without affecting normal liver cells” (Bioorg Med Chem Lett, 2012)
